pIC50: −log10 of the molar value. Where a name gives a salt, the structure may show the parent alone.
Assays:
[1] = test system: IL-1β release upon NLRP3 activation in phorbol 12-myristate 13-acetate (PMA)-differentiated THP-1 cells; experiment: THP-1 IC50 Determination Assay; format: cell-based; settings: Homo sapiens, inhibition of IL-1β release, LPS, nigericin, ELISA
Description: The compounds of the present disclosure were tested for their inhibitory activity against IL-1β release upon NLRP3 activation in phorbol 12-myristate 13-acetate (PMA)-differentiated THP-1 cells.
THP-1 cells stored in liquid nitrogen were thawed in a 37° C. water bath. The cells were added into complete RPMI 1640 medium (FBS (56 mL), 100× Penicillin-Streptomycin (5.6 mL) and 0.05 mM 2-Mercaptoethanol in RPMI 1640 Medium (500 mL)) and centrifuged for 5 min at 1000 rpm. The supernatant was discarded and the cells resuspended into new cell culture medium for culturing. Cells were cultured in cell culture medium and passaged every 3-4 days to maintain cell density between 4×10^5 and 1.5×10^6 cells/mL. The cells were diluted to 0.8×10^6 cells/mL and grown in a T150 flask with PMA (final concentration 5 ng/mL). The flask was incubated in a 37° C. incubator with a humidified atmosphere of 5% CO2 for −40 hours. After −40 hours of PMA differentiation, the flask was washed with DPBS. Cells were digested with Trypsin LE for about 5 min at room temperature, and digestion was terminated using complete RPMI 1640 medium. Cells were centrifuged and resuspended (1000 rpm, 3 min). The supernatant was discarded and cells washed with DPBS, centrifuged and resuspended cells (1000 rpm, 5 min). Cells were plated at 30,000 cells/well in a 384-well PP plate and treated with 25 ng/mL LPS solution diluted in serum-free medium (45 μL). The plate was incubated in a 37° C. incubator with a humidified atmosphere of 5% CO2 for 2 hours. Compounds (from 10 mM DMSO solution) were dispensed and serially diluted by 1:3 eight times, with final 0.5% DMSO concentration. NLRP3 inflammasome was activated with nigericin (5 μL), the plate was centrifuged (1000 rpm, 30 s) and incubated in a 37° C. incubator with a humidified atmosphere of […] for 2 hours. 35 μL/well of supernatant was removed and IL-1β levels determined by ELISA assay (Mabtech 3416-1H-20) according to the manufacturer's instructions.

[2] = test system: IL-1β release upon NLRP3 activation in peripheral blood mononuclear cells (PBMC); experiment: PBMC IC50 Determination Assay; format: cell-based; settings: Homo sapiens; inhibition of IL-1β release; PBMC primed with LPS, stimulated with ATP or nigericin; ELISA or HTRF
Description: The compounds of the present disclosure were tested for their inhibitory activity against IL-1β release upon NLRP3 activation in peripheral blood mononuclear cells (PBMC).
Protocol A. PBMC were isolated from buffy coats by density gradient centrifugation on Histopaque-1077 (Sigma, cat no. 10771). Isolated cells were seeded into the wells of a 96-well plate and incubated for 3 h with lipopolysaccharide (LPS). Following medium exchange, the compounds of the present disclosure were added (a single compound per well) and the cells were incubated for 30 min. Next, the cells were stimulated either with ATP (5 mM) or nigericin (10 μM) for 1 h and the cell culture media from the wells were collected for further analysis.
The release of IL-1β into the media was determined by a quantitative detection of IL-1β in the media using an IL-1β enzyme-linked immunosorbent assay (ELISA) Ready-SET-Go!, eBioscience cat. No. 88-7261-88. Briefly, in a first step, high affinity binding plates (Corning, Costar 9018 or NUNC Maxisorp Cat No. 44-2404) were coated overnight at 4° C. with specific capture antibody included in the kit (anti-human IL-1β ref. 14-7018-68). Subsequently, plates were blocked with blocking buffer for 1 h at room temperature (rt) and after washing with a buffer (PBS with 0.05% Tween-20) incubated with protein standard and culture media. After 2 h of incubation at rt, plates were washed and incubated with biotinylated detection antibody included in the kit (anti-human IL-1β Biotin ref. 33-7110-68) for 1 h at rt. Plates were washed and incubated with HRP-streptavidin for 30 min at rt and washed again. The signal was developed after addition of 3,3′,5,5′-tetramethylbenzidine-peroxidase (TMB) until colour appeared and the reaction was stopped by 2 M H2SO4. A microplate spectrophotometer (BioTek) was used to detect signals with 450 nm. The detection range of IL-1β ELISA was […].
Protocol B. PBMC were isolated from buffy coats by density gradient centrifugation on Histopaque-1077 (Sigma, cat no. 10771). Isolated cells were seeded into the wells (280,000 cells/well) of a 96-well plate and incubated for 3 h with lipopolysaccharide (LPS, 1 μg/mL diluted 1000× from a 1 mg/mL stock solution). The compounds of the present disclosure were added (a single compound per well) and the cells were incubated for 30 min. Next, the cells were stimulated with ATP (5 mM final concentration diluted 20× from a 100 mM stock solution) for 1 h and the cell culture media from the wells were collected for further analysis.
The release of IL-1β into the media was determined by quantitative detection of IL-1β in the media using HTRF®, CisBio cat. No. 62HIL1BPEH. Briefly, cell culture supernatant were dispensed directly into the assay plate containing antibodies labelled with the HTRF® donor and acceptor. A microplate spectrophotometer (BMG) was used to detect signals at 655 nm and 620 nm. The detection range of IL-1β HTRF® was 39-6500 pg/mL.

SMILES	pIC50 [1]	pIC50 [2]
Cc1cc(Cl)cc(O)c1-c1cc2ccn(CC3CCN(CC(F)F)CC3)c2nn1 [Compound 10, 5-Chloro-2-(7-{[1-(2,2-difluoroethyl)piperidin-4-yl]methyl}-7H-pyrrolo[2,3-c]pyridazin-3-yl)-3-methylphenol hydrochloride]	6.52 to 7.00	6.52 to 7.00
Cc1cc(Cl)cc(O)c1-c1cc2ccn(CC3CCN(C)C(=O)C3)c2nn1 (stereo not shown) [Compound 11, 4-{[3-(4-Chloro-2-hydroxy-6-methylphenyl)-7H-pyrrolo[2,3-c]pyridazin-7-yl]methyl}-1-methylpiperidin-2-one]	6.52 to 7.00	6.52 to 7.00
Cc1cc(Cl)cc(O)c1-c1cc2ccn(CCN3CCOCC3)c2nn1 [Compound 12, 5-Chloro-3-methyl-2-{7-[2-(morpholin-4-yl)ethyl]-7H-pyrrolo[2,3-c]pyridazin-3-yl}phenol hydrochloride]	6.52 to 7.00	6.00 to 6.52
Cc1cc(Cl)cc(O)c1-c1cc2ccn(CCN3CCN(C)CC3)c2nn1 [Compound 13, 5-Chloro-3-methyl-2-{7-[2-(4-methylpiperazin-1-yl)ethyl]-7H-pyrrolo[2,3-c]pyridazin-3-yl}phenol dihydrochloride]	6.00 to 6.52	6.00 to 6.52
Cc1cc(Cl)cc(O)c1-c1cc2ccn(CC3CCCCN3C)c2nn1 (stereo not shown) [Compound 14, 5-Chloro-3-methyl-2-{7-[(1-methylpiperidin-2-yl)methyl]-7H-pyrrolo[2,3-c]pyridazin-3-yl}phenol]	6.52 to 7.00	6.52 to 7.00
Cc1cc(Cl)cc(O)c1-c1cc2ccn(CC3CCN(C4COC4)CC3)c2nn1 [Compound 15, 5-Chloro-3-methyl-2-(7-{[1-(oxetan-3-yl)piperidin-4-yl]methyl}-7H-pyrrolo[2,3-c]pyridazin-3-yl)phenol]	6.52 to 7.00	6.52 to 7.00
Cc1cc(Cl)cc(O)c1-c1cc2ccn(CC3CCOC3)c2nn1 (stereo not shown) [Compound 16, 5-Chloro-3-methyl-2-{7-[(oxolan-3-yl)methyl]-7H-pyrrolo[2,3-c]pyridazin-3-yl}phenol]	6.52 to 7.00	6.52 to 7.00
COC(=O)N1CCC(Cn2ccc3cc(-c4c(C)cc(Cl)cc4O)nnc32)CC1 [Compound 17, Methyl 4-{[3-(4-chloro-2-hydroxy-6-methylphenyl)-7H-pyrrolo[2,3-c]pyridazin-7-yl]methyl}piperidine-1-carboxylate]	6.52 to 7.00	6.52 to 7.00
COCCN1CCC(Cn2ccc3cc(-c4c(C)cc(Cl)cc4O)nnc32)CC1 [Compound 18, 5-Chloro-2-(7-{[1-(2-methoxyethyl)piperidin-4-yl]methyl}-7H-pyrrolo[2,3-c]pyridazin-3-yl)-3-methylphenol]	6.52 to 7.00	6.52 to 7.00
CNC(=O)Cn1ccc2cc(-c3c(C)cc(Cl)cc3O)nnc21 [Compound 19, 2-[3-(4-Chloro-2-hydroxy-6-methylphenyl)-7H-pyrrolo[2,3-c]pyridazin-7-yl]-N-methylacetamide]	6.00 to 6.52	6.00 to 6.52
CNC(=O)CCn1ccc2cc(-c3c(C)cc(Cl)cc3O)nnc21 [Compound 20, 3-[3-(4-Chloro-2-hydroxy-6-methylphenyl)-7H-pyrrolo[2,3-c]pyridazin-7-yl]-N-methylpropanamide]	6.00 to 6.52	6.00 to 6.52
COCCn1ccc2cc(-c3c(C)cc(Cl)cc3O)nnc21 [Compound 21, 5-Chloro-2-[7-(2-methoxyethyl)-7H-pyrrolo[2,3-c]pyridazin-3-yl]-3-methylphenol]	6.00 to 6.52	6.52 to 7.00
Cc1cc(Cl)cc(O)c1-c1cc2ccn(CCN(C)C)c2nn1 [Compound 22, 5-Chloro-2-{7-[2-(dimethylamino)ethyl]-7H-pyrrolo[2,3-c]pyridazin-3-yl}-3-methylphenol hydrochloride]	6.00 to 6.52	6.00 to 6.52
COCCCn1ccc2cc(-c3c(C)cc(Cl)cc3O)nnc21 [Compound 23, 5-Chloro-2-[7-(3-methoxypropyl)-7H-pyrrolo[2,3-c]pyridazin-3-yl]-3-methylphenol]	6.00 to 6.52	6.00 to 6.52
Cc1cc(Cl)cc(O)c1-c1cc2ccn(CC3CCCCO3)c2nn1 (stereo not shown) [Compound 25, 5-Chloro-3-methyl-2-{7-[(oxan-2-yl)methyl]-7H-pyrrolo[2,3-c]pyridazin-3-yl}phenol]	6.52 to 7.00	6.52 to 7.00
Cc1cc(Cl)cc(O)c1-c1cc2ccn(CC3CCN(CC#N)CC3)c2nn1 [Compound 26, 2-(4-{[3-(4-Chloro-2-hydroxy-6-methylphenyl)-7H-pyrrolo[2,3-c]pyridazin-7-yl]methyl}piperidin-1-yl)acetonitrile]	6.00 to 6.52	6.00 to 6.52
Cc1cc(Cl)cc(O)c1-c1cc2ccn(CC3(F)CCN(C)CC3)c2nn1 [Compound 27, 5-Chloro-2-{7-[(4-fluoro-1-methylpiperidin-4-yl)methyl]-7H-pyrrolo[2,3-c]pyridazin-3-yl}-3-methylphenol hydrochloride]	6.52 to 7.00	7.00 to 7.52
Cc1cc(Cl)cc(O)c1-c1cc2ccn(CC3CN(C)C3)c2nn1 [Compound 28, 5-Chloro-3-methyl-2-{7-[(1-methylazetidin-3-yl)methyl]-7H-pyrrolo[2,3-c]pyridazin-3-yl}phenol hydrochloride]	6.00 to 6.52	6.00 to 6.52
Cc1cc(Cl)cc(O)c1-c1cc2ccn(CCCN(C)C)c2nn1 [Compound 29, 5-Chloro-2-{7-[3-(dimethylamino)propyl]-7H-pyrrolo[2,3-c]pyridazin-3-yl}-3-methylphenol hydrochloride]	5.52 to 6.00	5.52 to 6.00
Cc1cc(Cl)cc(O)c1-c1cc2ccn(CC(=O)N3CCCC3)c2nn1 [Compound 30, 2-[3-(4-Chloro-2-hydroxy-6-methylphenyl)-7H-pyrrolo[2,3-c]pyridazin-7-yl]-1-(pyrrolidin-1-yl)ethan-1-one]	6.00 to 6.52	6.00 to 6.52
Cc1cc(Cl)cc(O)c1-c1cc2ccn(CC3CCN(S(C)(=O)=O)CC3)c2nn1 [Compound 31, 5-Chloro-2-{7-[(1-methanesulfonylpiperidin-4-yl)methyl]-7H-pyrrolo[2,3-c]pyridazin-3-yl}-3-methylphenol]	6.52 to 7.00	6.52 to 7.00
Cc1cc(Cl)cc(O)c1-c1cc2ccn(CC(=O)N(C)C)c2nn1 [Compound 32, 2-[3-(4-Chloro-2-hydroxy-6-methylphenyl)-7H-pyrrolo[2,3-c]pyridazin-7-yl]-N,N-dimethylacetamide]	6.52 to 7.00	6.52 to 7.00
Cc1cc(Cl)cc(O)c1-c1cc2ccn(CCN3CCCC(F)C3)c2nn1 (stereo not shown) [Compound 33, 5-Chloro-2-{7-[2-(3-fluoropiperidin-1-yl)ethyl]-7H-pyrrolo[2,3-c]pyridazin-3-yl}-3-methylphenol hydrochloride]	6.00 to 6.52	7.00 to 7.52

— US20250206745A1, “PYRROLOPYRIDAZINE DERIVATIVES AND RELATED USES” (NodThera Limited, priority 2023, published 2025)
